Read-outs that look alike come from different tables or passages of the source.
Legend:
Assay in all cases: kinase profiling panel
Assay type in all cases: biochemical
Conditions in all cases: read-out: % Activity Remaining
[1] = biological target: BTK (Homo sapiens, UniProt Q06187)
Description: (§1) Protein kinase profiling against a Dundee panel of 140 protein kinases was undertaken at the International Centre for Protein Kinase Profiling. The result for each kinase was presented as a mean kinase activity of the reaction taken in triplicate relative to a control sample treated with DMSO. Assay conditions and abbreviations are available at http://www.kinase-screen.mrc.ac.uk.

[2] = biological target: ERK1 (Homo sapiens, UniProt P27361)
Description: as §1

[3] = biological target: T1, IKK beta (Homo sapiens, UniProt O14920)
T1 sequence (O14920 1-756): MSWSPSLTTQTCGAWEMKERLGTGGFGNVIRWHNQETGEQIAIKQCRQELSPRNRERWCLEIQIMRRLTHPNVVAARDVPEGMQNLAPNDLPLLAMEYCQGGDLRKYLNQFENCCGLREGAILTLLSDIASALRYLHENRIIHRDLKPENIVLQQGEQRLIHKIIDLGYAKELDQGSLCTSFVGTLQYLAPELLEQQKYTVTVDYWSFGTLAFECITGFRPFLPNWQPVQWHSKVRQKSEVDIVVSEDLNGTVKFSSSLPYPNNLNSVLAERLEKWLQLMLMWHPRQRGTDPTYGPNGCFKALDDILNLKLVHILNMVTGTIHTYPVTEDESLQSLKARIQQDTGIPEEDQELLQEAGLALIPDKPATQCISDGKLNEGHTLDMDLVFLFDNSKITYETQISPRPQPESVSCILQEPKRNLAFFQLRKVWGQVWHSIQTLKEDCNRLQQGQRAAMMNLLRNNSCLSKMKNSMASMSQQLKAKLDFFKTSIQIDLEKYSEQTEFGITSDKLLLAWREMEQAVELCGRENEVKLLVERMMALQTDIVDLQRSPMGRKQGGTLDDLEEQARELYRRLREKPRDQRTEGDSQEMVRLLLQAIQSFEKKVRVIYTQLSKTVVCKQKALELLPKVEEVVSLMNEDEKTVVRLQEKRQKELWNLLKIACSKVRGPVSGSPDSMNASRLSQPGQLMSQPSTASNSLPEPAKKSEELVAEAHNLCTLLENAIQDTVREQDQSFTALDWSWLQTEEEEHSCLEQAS
Description: as §1

[4] = biological target: IR (Homo sapiens, UniProt P06213)
Description: as §1

[5] = biological target: IRAK1 (Homo sapiens, UniProt P51617)
Description: as §1

[6] = biological target: JNK3 (Homo sapiens, UniProt P53779)
Description: as §1

[7] = biological target: MARK1 (Homo sapiens, UniProt Q9P0L2)
Description: as §1

[8] = biological target: MSK1 (Homo sapiens, UniProt O75582)
Description: as §1

[9] = biological target: T2, NEK2a (Homo sapiens, UniProt P51955)
T2 sequence (P51955 1-445): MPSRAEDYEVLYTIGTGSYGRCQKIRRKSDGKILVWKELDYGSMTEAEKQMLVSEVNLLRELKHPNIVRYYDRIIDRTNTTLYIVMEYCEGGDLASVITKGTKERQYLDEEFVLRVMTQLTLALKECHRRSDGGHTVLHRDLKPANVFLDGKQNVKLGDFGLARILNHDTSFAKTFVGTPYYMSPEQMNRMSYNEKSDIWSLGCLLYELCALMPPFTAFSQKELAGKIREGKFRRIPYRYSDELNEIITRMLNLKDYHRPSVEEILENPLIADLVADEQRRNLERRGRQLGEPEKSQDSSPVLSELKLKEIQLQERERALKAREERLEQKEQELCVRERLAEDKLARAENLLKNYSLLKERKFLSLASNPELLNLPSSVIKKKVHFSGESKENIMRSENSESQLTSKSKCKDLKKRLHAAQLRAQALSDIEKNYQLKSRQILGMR
Description: as §1

[10] = biological target: NEK6 (Homo sapiens, UniProt Q9HC98)
Description: as §1

[11] = biological target: OSR1 (Homo sapiens, UniProt O95747)
Description: as §1

[12] = biological target: PIM1 (Homo sapiens, UniProt P11309)
Description: as §1

[13] = biological target: SYK (Homo sapiens, UniProt P43405)
Description: as §1

[14] = biological target: T3, TBK1 (Homo sapiens, UniProt Q9UHD2)
T3 sequence (Q9UHD2 1-729): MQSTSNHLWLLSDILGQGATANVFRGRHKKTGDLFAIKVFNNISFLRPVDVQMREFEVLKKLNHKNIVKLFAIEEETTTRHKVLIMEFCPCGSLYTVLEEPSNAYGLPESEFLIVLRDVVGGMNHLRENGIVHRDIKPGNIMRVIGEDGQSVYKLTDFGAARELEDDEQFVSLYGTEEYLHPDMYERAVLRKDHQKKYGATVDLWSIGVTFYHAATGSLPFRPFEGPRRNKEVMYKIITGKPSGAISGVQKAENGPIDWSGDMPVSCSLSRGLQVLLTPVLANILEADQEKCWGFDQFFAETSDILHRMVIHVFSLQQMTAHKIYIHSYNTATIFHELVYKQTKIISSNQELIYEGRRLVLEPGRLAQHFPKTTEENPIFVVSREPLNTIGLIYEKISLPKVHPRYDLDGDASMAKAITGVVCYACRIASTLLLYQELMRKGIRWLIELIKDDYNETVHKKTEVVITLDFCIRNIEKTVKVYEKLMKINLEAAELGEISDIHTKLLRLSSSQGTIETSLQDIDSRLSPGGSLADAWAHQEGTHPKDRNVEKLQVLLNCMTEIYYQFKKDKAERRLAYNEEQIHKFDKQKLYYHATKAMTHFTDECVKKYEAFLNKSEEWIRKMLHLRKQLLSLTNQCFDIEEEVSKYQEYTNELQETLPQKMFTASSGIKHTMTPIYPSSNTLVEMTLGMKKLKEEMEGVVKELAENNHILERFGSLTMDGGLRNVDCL
Description: as §1

[15] = biological target: TTBK2 (Homo sapiens, UniProt Q6IQ55)
Description: as §1

[16] = biological target: VEGFR1 (Homo sapiens, UniProt P17948)
Description: as §1

[17] = biological target: WNK1 (Homo sapiens, UniProt Q9H4A3)
Description: as §1

Sequence of IRAK1 (P51617 whole entry): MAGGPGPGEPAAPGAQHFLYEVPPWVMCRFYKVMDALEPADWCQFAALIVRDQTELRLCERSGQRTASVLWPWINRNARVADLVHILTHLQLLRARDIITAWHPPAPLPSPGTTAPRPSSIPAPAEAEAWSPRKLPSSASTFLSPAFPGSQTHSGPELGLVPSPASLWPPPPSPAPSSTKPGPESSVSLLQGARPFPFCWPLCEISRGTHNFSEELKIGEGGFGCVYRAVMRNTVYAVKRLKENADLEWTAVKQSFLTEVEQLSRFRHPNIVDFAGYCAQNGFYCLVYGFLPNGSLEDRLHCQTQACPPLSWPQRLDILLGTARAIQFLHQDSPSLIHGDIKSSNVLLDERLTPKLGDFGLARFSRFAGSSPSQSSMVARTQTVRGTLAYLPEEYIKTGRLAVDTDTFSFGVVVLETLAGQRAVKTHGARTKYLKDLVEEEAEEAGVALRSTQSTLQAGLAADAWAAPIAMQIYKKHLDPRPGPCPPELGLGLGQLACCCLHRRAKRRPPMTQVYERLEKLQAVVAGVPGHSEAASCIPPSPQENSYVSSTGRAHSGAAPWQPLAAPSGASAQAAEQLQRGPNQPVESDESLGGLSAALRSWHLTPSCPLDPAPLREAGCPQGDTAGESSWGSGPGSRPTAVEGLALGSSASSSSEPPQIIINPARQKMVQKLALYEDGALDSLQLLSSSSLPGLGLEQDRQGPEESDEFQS
Sequence of IR (P06213 28-1382): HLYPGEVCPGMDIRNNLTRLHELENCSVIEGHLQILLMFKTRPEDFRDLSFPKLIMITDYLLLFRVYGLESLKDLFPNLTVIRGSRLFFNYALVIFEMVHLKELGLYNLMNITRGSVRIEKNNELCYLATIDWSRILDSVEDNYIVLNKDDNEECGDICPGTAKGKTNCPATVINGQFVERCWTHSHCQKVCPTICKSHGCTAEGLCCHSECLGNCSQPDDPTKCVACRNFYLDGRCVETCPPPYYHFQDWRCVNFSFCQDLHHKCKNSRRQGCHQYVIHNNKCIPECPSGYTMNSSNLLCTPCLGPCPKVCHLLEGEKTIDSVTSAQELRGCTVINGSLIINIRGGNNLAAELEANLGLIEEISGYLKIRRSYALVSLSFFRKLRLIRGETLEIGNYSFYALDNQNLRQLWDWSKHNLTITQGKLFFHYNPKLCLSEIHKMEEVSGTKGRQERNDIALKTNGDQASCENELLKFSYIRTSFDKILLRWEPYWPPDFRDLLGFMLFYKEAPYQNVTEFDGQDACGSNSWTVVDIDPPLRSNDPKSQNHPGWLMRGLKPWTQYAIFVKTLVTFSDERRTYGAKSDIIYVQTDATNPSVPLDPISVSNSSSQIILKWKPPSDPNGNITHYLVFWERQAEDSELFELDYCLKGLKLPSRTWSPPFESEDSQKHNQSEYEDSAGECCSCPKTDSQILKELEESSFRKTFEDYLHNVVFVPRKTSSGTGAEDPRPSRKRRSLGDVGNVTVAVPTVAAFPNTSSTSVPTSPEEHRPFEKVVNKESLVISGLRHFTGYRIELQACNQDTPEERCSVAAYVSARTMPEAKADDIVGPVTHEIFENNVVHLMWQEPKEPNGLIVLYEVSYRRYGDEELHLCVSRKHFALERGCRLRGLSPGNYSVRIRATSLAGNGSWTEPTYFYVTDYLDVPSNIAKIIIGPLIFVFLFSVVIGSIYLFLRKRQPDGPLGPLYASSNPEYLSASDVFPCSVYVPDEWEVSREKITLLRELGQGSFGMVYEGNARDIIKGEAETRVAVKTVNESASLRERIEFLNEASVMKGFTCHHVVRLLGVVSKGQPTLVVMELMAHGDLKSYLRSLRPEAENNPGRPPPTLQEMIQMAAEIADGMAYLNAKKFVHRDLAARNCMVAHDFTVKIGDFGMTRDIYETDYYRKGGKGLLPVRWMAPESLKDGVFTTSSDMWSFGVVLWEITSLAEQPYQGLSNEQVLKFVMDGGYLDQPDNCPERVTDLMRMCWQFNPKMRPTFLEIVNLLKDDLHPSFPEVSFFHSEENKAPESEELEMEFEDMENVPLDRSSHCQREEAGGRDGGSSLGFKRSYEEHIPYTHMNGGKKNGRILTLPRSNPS
Sequence of ERK1 (P27361 whole entry): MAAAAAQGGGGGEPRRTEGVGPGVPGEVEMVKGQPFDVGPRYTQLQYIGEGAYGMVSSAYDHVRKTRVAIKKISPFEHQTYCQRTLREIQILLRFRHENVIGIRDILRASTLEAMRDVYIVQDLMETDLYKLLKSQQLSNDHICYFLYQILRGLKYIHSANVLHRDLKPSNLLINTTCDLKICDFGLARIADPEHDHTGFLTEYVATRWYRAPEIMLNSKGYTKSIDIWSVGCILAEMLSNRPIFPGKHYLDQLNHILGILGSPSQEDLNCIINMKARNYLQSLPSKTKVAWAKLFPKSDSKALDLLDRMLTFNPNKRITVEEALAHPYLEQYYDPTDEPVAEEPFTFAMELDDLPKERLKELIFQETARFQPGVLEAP
Sequence of NEK6 (Q9HC98 whole entry): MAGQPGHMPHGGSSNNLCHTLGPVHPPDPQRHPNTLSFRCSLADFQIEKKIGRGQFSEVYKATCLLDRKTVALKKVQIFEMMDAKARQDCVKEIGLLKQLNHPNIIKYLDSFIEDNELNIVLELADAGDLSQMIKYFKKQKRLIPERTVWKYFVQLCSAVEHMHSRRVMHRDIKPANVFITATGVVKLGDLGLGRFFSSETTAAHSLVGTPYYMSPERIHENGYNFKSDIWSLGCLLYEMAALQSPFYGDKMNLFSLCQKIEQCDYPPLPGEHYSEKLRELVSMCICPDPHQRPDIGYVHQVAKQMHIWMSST
Sequence of JNK3 (P53779 whole entry): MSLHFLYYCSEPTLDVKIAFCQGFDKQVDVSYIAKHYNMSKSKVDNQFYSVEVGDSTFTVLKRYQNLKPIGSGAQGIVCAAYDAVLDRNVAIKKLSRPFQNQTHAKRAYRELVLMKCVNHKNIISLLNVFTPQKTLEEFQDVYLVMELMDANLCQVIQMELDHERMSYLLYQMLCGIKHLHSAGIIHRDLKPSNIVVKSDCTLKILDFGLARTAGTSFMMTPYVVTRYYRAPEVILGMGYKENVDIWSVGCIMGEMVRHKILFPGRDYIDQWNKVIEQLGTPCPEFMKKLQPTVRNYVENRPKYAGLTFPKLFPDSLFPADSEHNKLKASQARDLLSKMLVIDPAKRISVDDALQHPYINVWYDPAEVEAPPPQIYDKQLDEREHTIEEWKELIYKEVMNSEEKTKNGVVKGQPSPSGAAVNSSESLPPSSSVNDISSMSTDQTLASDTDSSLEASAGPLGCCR
Sequence of PIM1 (P11309 whole entry): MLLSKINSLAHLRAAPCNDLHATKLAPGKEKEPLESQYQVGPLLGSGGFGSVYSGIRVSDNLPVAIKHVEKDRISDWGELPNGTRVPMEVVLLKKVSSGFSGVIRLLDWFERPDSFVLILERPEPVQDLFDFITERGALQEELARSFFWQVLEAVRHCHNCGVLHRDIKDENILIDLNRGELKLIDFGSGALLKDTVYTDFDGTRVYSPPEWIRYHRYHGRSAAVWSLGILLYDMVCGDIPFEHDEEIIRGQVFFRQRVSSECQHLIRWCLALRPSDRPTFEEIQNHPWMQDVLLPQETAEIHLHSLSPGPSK
Sequence of BTK (Q06187 whole entry): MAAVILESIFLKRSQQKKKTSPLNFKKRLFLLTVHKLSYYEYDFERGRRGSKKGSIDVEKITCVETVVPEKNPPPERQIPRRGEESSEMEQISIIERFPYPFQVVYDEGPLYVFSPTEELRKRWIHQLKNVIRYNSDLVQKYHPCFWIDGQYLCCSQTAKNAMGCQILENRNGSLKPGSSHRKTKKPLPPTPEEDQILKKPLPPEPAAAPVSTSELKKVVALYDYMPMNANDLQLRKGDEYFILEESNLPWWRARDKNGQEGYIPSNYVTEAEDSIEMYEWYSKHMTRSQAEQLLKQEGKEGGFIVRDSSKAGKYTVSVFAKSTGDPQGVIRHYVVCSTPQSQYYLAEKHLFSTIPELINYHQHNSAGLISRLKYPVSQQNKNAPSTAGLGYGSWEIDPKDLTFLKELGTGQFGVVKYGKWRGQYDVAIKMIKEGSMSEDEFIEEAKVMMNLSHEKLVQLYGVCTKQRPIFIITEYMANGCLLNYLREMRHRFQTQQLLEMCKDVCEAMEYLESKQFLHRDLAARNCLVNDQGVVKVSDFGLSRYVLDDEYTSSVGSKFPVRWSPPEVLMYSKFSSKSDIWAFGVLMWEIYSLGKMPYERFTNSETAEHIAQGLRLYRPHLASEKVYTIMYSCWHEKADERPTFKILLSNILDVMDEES
Sequence of MARK1 (Q9P0L2 whole entry): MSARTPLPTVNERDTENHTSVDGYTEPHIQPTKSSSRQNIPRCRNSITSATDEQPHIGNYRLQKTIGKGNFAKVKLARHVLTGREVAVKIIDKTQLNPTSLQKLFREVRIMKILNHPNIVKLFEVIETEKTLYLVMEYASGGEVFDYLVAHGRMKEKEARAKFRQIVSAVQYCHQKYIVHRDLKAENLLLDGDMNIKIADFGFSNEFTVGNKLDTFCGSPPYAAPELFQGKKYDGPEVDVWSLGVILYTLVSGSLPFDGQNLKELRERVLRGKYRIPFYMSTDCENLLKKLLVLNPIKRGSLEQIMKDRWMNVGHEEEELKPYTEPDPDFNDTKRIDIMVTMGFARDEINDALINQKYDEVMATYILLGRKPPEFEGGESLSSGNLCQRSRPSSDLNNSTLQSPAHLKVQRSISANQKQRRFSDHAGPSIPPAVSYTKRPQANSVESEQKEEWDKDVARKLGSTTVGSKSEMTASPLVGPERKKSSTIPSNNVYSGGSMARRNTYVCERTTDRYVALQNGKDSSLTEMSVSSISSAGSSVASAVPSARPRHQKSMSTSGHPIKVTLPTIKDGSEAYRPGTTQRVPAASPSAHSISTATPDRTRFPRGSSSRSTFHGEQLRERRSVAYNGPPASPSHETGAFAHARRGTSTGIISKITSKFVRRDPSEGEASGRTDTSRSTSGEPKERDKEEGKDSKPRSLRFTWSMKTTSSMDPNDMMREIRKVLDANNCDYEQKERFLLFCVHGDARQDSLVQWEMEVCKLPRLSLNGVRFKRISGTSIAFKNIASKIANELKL

Compound	remaining activity at 1 µM ([1]; 1 µM) [%]	remaining activity at 1 µM ([2]; 1 µM) [%]	remaining activity at 1 µM ([3]; 1 µM) [%]	remaining activity at 1 µM ([4]; 1 µM) [%]	remaining activity at 1 µM ([5]; 1 µM) [%]	remaining activity at 1 µM ([6]; 1 µM) [%]	remaining activity at 1 µM ([7]; 1 µM) [%]	remaining activity at 1 µM ([8]; 1 µM) [%]	remaining activity at 1 µM ([9]; 1 µM) [%]	remaining activity at 1 µM ([10]; 1 µM) [%]	remaining activity at 1 µM ([11]; 1 µM) [%]	remaining activity at 1 µM ([12]; 1 µM) [%]	remaining activity at 1 µM ([13]; 1 µM) [%]	remaining activity at 1 µM ([14]; 1 µM) [%]	remaining activity at 1 µM ([15]; 1 µM) [%]	remaining activity at 1 µM ([16]; 1 µM) [%]	remaining activity at 1 µM ([17]; 1 µM) [%]	remaining activity at 1 µM [1] [%]	remaining activity at 1 µM [2] [%]	remaining activity at 1 µM [3] [%]	also measured
Cc1ccc(F)c(S(=O)(=O)Nc2ccc(-c3nc(OC[C@H]4CN(CCCCCCOCCOCCOCC(=O)N[C@H](C(=O)N5C[C@H](O)C[C@H]5C(=O)NCc5ccc(-c6scnc6C)cc5)C(C)(C)C)CCO4)c4cn[nH]c4n3)cc2)c1 [SGK3-PROTAC1]	97	103	100	103	98	92	99	50	162	106	103	94	116	93	94	120	94	–	–	–	–
COc1ccc(Cl)c(S(=O)(=O)Nc2ccc(-c3nc(OC[C@H]4CNCCO4)c4c(C)n[nH]c4n3)cc2)c1 [290-R, reference compound]	–	–	–	–	–	–	–	–	–	–	–	–	–	–	–	–	–	91	115	102	remaining activity at 1 µM [4]: 102%; remaining activity at 1 µM [5]: 93%; remaining activity at 1 µM [6]: 104%; remaining activity at 1 µM [7]: 115%; remaining activity at 1 µM [8]: 10%; remaining activity at 1 µM [9]: 74%; remaining activity at 1 µM [10]: 88%; remaining activity at 1 µM [11]: 110%; remaining activity at 1 µM [12]: 83%; remaining activity at 1 µM [13]: 88%; remaining activity at 1 µM [14]: 62%; remaining activity at 1 µM [15]: 114%; remaining activity at 1 µM [16]: 82%; remaining activity at 1 µM [17]: 110%
Cc1ccc(F)c(S(=O)(=O)Nc2ccc(-c3nc(OC[C@H]4CN(CCCCCCOCCOCCOCC(=O)N[C@H](C(=O)N5C[C@@H](O)C[C@H]5C(=O)NCc5ccc(-c6scnc6C)cc5)C(C)(C)C)CCO4)c4cn[nH]c4n3)cc2)c1 [cisSGK3-PROTAC1]	91	101	101	94	105	83	93	56	139	111	118	97	103	111	90	103	97	–	–	–	–
Cc1ccc(F)c(S(=O)(=O)Nc2ccc(-c3nc(OC[C@H]4CNCCO4)c4cn[nH]c4n3)cc2)c1 [308-R, reference compound]	–	–	–	–	–	–	–	–	–	–	–	–	–	–	–	–	–	59	106	67	remaining activity at 1 µM [4]: 110%; remaining activity at 1 µM [5]: 88%; remaining activity at 1 µM [6]: 112%; remaining activity at 1 µM [7]: 109%; remaining activity at 1 µM [8]: 7%; remaining activity at 1 µM [9]: 67%; remaining activity at 1 µM [10]: 91%; remaining activity at 1 µM [11]: 75%; remaining activity at 1 µM [12]: 104%; remaining activity at 1 µM [13]: 100%; remaining activity at 1 µM [14]: 83%; remaining activity at 1 µM [15]: 87%; remaining activity at 1 µM [16]: 95%; remaining activity at 1 µM [17]: 75%
